Assay results taken from patent US11779628B2, “Use of cell-permeable peptide inhibitors of the JNK signal transduction pathway for the treatment of various diseases” (Xigen Inflammation Ltd., priority 2014, dated 2023).

Test system: HCT 116 human colon tumor
Assay: Orthotopic HCT 116 human colon tumors in SCID mice
Type: in vivo
Method: The objective of this study was to determine the effect of XG-102 on the growth of HCT 116 human colon tumor orthotopically xenografted in SCID mice.
For XG-102 administration the required amount of XG-102 was dissolved in the vehicle. The formulation was prepared according to the procedure detailed below. Concentrations were calculated and expressed taking into account test item purity and peptide content (multiplier coefficient was 74.6%). […] Diluted solutions were maintained on ice until use. Unused material was discarded. XG-102 was injected once daily at 0.1 and 1 mg/kg/inj. for a total of fourteen consecutive administrations (Q1Dx14). The routes of substance administrations were: injected subcutaneously (SC) at 5 ml/kg/inj., administered per os (PO) to mice by oral gavage via a cannula at 5 ml/kg/adm. The injection and administration volumes were adapted, according to the daily individual body weight of mice.
Twenty four to Forty-eight hours before tumor induction, 5 SCID mice were irradiated with a γ-source (1.8 Gy, Co^60, INRA, Dijon, France). Ten millions (10^7) HCT 116 cells suspended in 200 μl of RPMI medium were subcutaneously injected in the right flank of the 5 female SCJD mice. When tumors reached 1000-2000 mm^3, mice were sacrificed. Tumors were surgically excised from the animal to obtain fresh tumor fragments (20-30 mg) to be orthotopically implanted on the caecum of 75 mice at D0.
Twenty four to forty-eight hours before tumor implantation, 75 SCID mice were irradiated with a γ-source (1.8 Gy, Co^60, INRA, Dijon, France). The surgery was performed in the afternoon, with a minimum delay of two hours after the 7th XG-102 treatment. The abdomen from anaesthetized animal was opened through a median incision under aseptic conditions. The caecum was exteriorized and a small lesion was performed on caecum wall. The tumor fragment was placed on lesion and fixed with 6/0 sutures. The abdominal cavity was subsequently closed in 2 layers with 4/0 sutures.
At D-7, mice were randomized according to their body weight before treatment start to form 5 groups of 15 mice. The body weight of each group was not statistically different from the others (analysis of variance). The treatment began at D-7 according to following treatment schedule: • Mice from group 1 received one PO administration of XG-102 vehicle at 5 ml/kg/inj. once daily for a total of fourteen consecutive administrations (Q 1 Dx14), • Mice from group 2 received one PO administration of XG-102 at 0.1 mg//kg/inj. once daily for a total of fourteen consecutive administrations (QI Dx14), • Mice from group 3 received one PO administration of XG-102 at 1 mg//kg/inj. Once daily for a total of fourteen consecutive administrations (Q1Dx14), • Mice from group 4 received one SC injection of XG-102 at 0.1 mg//kg/inj. once daily for a total of fourteen successive administrations (Q1Dx14), • Mice from group 5 received one SC injection of XG-102 at 1 mg//kg/inj. once daily for a total of fourteen consecutive administrations (Q1Dx14):
Mice were monitored every day throughout the study for behaviour and survival. The body weight and tumor volume was monitored twice a week for all mice throughout the study. Isoflurane® Forene (Centravet, Bondoufle, France) was used to anaesthetize the animals before cell injection, surgery (orthotopic tumor implantation) and sacrifice.
Mice were sacrificed at D26. […] Invasion of liver by tumor nodules was evaluated macroscopically. […]

`CC(C)C[C@@H](NC(=O)[C@@H](Cc1ccccc1)NC(=O)[C@H]1CCCN1C(=O)[C@@H](CCC(N)=O)NC(=O)[C@H](NC(=O)[C@H]1CCCN1C(=O)[C@@H](CCCNC(=N)N)NC(=O)[C@@H](CO)NC(=O)[C@@H](CCC(N)=O)NC(=O)[C@H](N)CC(=O)O)C(C)C)C(=O)N[C@H](CC(N)=O)C(=O)N[C@H](CC(C)C)C(=O)N[C@@H](C(=O)N[C@@H](C(=O)N1CCC[C@@H]1C(=O)N[C@H](CCCNC(=N)N)C(=O)N[C@H](CCCCN)C(=O)N1CCC[C@@H]1C(=O)N[C@H](CCCNC(=N)N)C(=O)N1CCC[C@@H]1C(=O)N1CCC[C@@H]1C(=O)N[C@H](CCCNC(=N)N)C(=O)N[C@H](CCCNC(=N)N)C(=O)N[C@H](CCCNC(=N)N)C(=O)N[C@H](CCC(N)=O)C(=O)N[C@H](CCCNC(=N)N)C(=O)N[C@H](CCCNC(=N)N)C(=O)N[C@H](CCCCN)C(=O)N[C@H](CCCCN)C(=O)N[C@H](CCCNC(=N)N)C(=O)NCC(=O)O)[C@H](C)O)[C@H](C)O` [XG-102] was tested, and the “percentage of death D0 to D9 (surgery complications)” value (shortened to “percentage of death D0 to D9”) (1st treated group listed (PO 0.1 mg/kg, order assumed)) was 40%, the “percentage of death D0 to D9” value (2nd treated group listed (PO 1 mg/kg, order assumed)) was 34% and the “percentage of death D0 to D9” value (3rd treated group listed (SC 0.1 mg/kg, order assumed)) was 47%. For the same compound, the “percentage of death D0 to D9” value (4th treated group listed (SC 1 mg/kg, order assumed)) was 40% and the “MBWC at D-2” value (PO 0.1 mg/kg/adm.) was “+7.1±4.6%”.
